Source: patent US20070087982A1, “Methods of treatment and diagnosis using modulators of virus-induced cellular gene sequences” (priority 2003, published 2007)

How the values were obtained:
[1] = tested on: HIV-infected MT-2 cells; test: HIV-induced syncytia formation in MT-2 cells; format: cell-based, human; details: 48 hours post infection
Procedure: The panels of FIG. 7 show the relative extent of HIV-induced syncytia formation in MT-2 cells at 48 hours post infection under various conditions. “Control” cells are HIV-infected cells, but are not treated with any test agent. “DMSO” treatment alone is also included as a control. Other treatments include, AZT, PP3 and PP2, all solubilized in DMSO.

[2] = tested on: HIV-1 89.6; test: HIV replication assay (HIV-1 p24 antigen ELISA) in HIV-infected THP-1 and MT-2 cells; format: cell-based; details: for Extent of PMO-induced Inhibition of HIV replication: HIV-1 89.6, measured by gag p24 production, gene-specific PMO antisense
From the text: Introduction of antisense PMO into HIV-infected THP-1 or MT-2 cells. Antisense PMO molecules, for delivery purposes, are typically converted to a paired duplex together with a partially complementary cDNA oligonucleotide in the weakly basic delivery reagent ethoxylated polyethylenimine (EPEI) (Summerton, supra). The anionic complex binds to the cell surface, is taken up by endocytosis and eventually released into the cytosol. A protocol for optimum uptake of antisense PMO in THP-1 and MT-2 cells was developed using a modification of the EPEI method. PMO-AS were obtained from GeneTools (Genetools, LLC, One Summerton Way, Philomath, Oreg. 97370).
Briefly, loading into target cells was accomplished by complexing the PMO with a proprietary loading reagent, Ethoxylated Polyethylenimine (EPEI). Target cells (MT-2 or THP-1) were introduced into snap cap conical tubes (5×10^5 cells/tube) in 900 μl serum free RPMI and the EPEI-PMO complex was added for 4 hours at 37° C. in a 7% CO2 atmosphere. The PMO-EPEI complex was prepared by diluting 5 μl PMO in 40 μl sterile RNase-free water, adding 5 μl EPEI, vortexing and incubating the sample for 20 minutes at room temperature. The sample was then mixed with 50 μl serum-free RPMI and added to the target cells to yield a final volume of 1 ml. At the end of the loading period, cells were gently pelleted and the PMO solution was removed by aspiration. After a further wash, cells were incubated in complete RPMI for 12 hrs prior to HIV infection to allow for recovery and initiation of PMO action.
HIV-1 Infection. PMO-treated THP-1 or MT-2 cells were infected with 50 μl of concentrated HIV-1 89.6 diluted to 1 ml in serum-free RPMI. The following control cultures were identically infected: (i) to control for any non-specific effect of the loading protocol, cells exposed to EPEI alone during the loading procedure; (ii) as a positive control for normal HIV infection, cells that were not exposed to either EPEI or EPEI-PMO; (iii) as a control for HIV inhibition, cells infected with HIV in the presence of 2 μM AZT and maintained in AZT throughout.
Cells were exposed to HIV for 4 hours. The inoculum was removed by 3 cycles of pelleting and rinsing. The cells were resuspended in 1.5 ml of complete RPMI and 0.5 ml immediately removed at Time 0 to leave a final volume of 1 ml. The Time 0 sample served as a measure of residual virus. At each harvest time (T1 through T4), 0.5 ml of supernatant was removed and replaced with an equal volume of complete RPMI. Samples were stored at −80° C. until evaluation using a p24 ELISA assay (described below). Each experimental variable and control was performed in duplicate. T1 through T4 typically corresponded to 16, 24, 40 and 48 hrs PI, respectively.
Validation of KSHV-induced gene sequences; HIV-1 p24 antigen ELISA. To monitor the effect of PMO-targeting of cellular proteins on HIV replication, supernatants harvested from PMO-treated and control THP and MT-2 cells were assayed using an HIV p24 antigen ELISA. The rationale behind this assay is described in the following paragraph.
The HIV-1 gag protein p24 is the major internal structural component of the virion core. The Coulter p24 assay is an enzyme-liked immunosorbent assay (ELISA) performed using a commercially available kit (Beckman Coulter). It was developed specifically for the detection and quantitation of HIV-1 p24 in plasma or serum, for clinical purposes, or in tissue culture supernatants, to monitor virus replication. Each kit contains a 96-well microtiter tray pre-coated with a monoclonal antibody to p24. A specimen of plasma, serum or tissue culture supernatant is added to each well along with a viral lysis buffer and incubated to allow any p24 antigen present to bind to the coated well. Following a wash, biotinylated human anti-HIV IgG is added and incubated to allow complexing to any bound p24. Following another wash, strepatavidin-HRP is added to complex with any bound biotinylated complexes. […]

[3] = tested on: WNV (NY1999); test: Infectious WNV in culture supernatant of SKN-MC cells (plaque assay on Vero cells); format: cell-based, West Nile virus; details: multiplicity of infection 5, 20 μM, 22 hours post-infection (20 h post-PP2 addition)
From the text: SKN-MC neutoblastoma cells were infected with WNV at a multiplicity of 5.

[4] = tested on: WNV; test: Infectious WNV within infected SKN-MC cell lysates (plaque assay on Vero cells); format: cell-based, West Nile virus
Procedure: Additionally, infectious virus within infected cell lysates was decreased almost 10^6-fold four hours post-addition of PP2 (FIG. 8B, gray bars; and FIG. 15, left panel). […] Specifically, SKN-MC cells were infected with WNV as above. At 2 hpi, cells were treated with PP2 at the indicated final concentrations. At 20 hpi, cells were re-fed with media containing fresh PP2 at the same concentration. Cells were washed 3-times with phosphate buffered saline (PBS), resuspended in 250 μl PBS, and then lysed by 3 successive freeze/thaws. Lysates were centrifuged at 13,000×g for 5 minutes, followed by collection of the supernatant. Infectious virus in soluble lysate was measured by plaque assay on Vero cells. Samples were collected 4-hours post-addition of fresh PP2 (gray bars) and 24 hours post addition of fresh PP2 (black bars). 24-hours post-addition of PP2, virus within the infected cell was approximately 500-fold lower, indicating some recovery from the effect of the drug (FIG. 8B, black bars).

[5] = tested on: WNV RNA; test: Quantitative RT-PCR (Taqman) of WNV RNA within infected SKN-MC cells; format: cell-based, West Nile virus; details: 4 hours post PP2 addition, normalized to β-actin
Procedure: Specifically, cells were prepared as described above in relation to FIG. 8B. Four hours post fresh PP2 addition, RNA was isolated from 200 μl of cell lysate by Trizol reagent (Invitrogen), and 1 μg total RNA was used in a quantitative RT-PCR reaction (Taqman) using WNV-specific primer and probe set and standards. An additional RT-PCR was performed using β-actin-specific primers and probe, for an internal control. WNV RNA quantities were normalized to the β-actin values.

[6] = tested on: WNV E protein; test: Endo H / PNGase F sensitivity of WNV E protein in infected Vero cells (western blot); format: cell-based, West Nile virus; details: WNV multiplicity 3, PP2 added 1 hpi, 24 hpi, consistent at 48 h
Procedure: Inhibition of src-family kinases (SFKs) may result in mis-localization or aberrant trafficking of WNV proteins, thereby interfering with formation of infectious particles. To test this hypothesis, lysates from WNV-infected cells (with or without PP2) were treated with Endoglycosidase H (Endo H) or Peptide N-glycosidase F (PNGase F).
Endo H removes immature high-mannose glycans from proteins. High-mannose structures are added to proteins in the endoplasmic reticulum (ER). Such structures are trimmed and further modified in the Golgi, conferring resistance to endo H. Sensitivity to endo H is therefore indicative of proteins that have not advanced beyond the endoplasmic reticulum in the secretory pathway (Maley, et al., Anal. Biochem. 180:195, 1989.
PNGase F will remove all glycan moieties regardless of modification.
Methods. Vero cells were infected with WNV (multiplicity=3) and treated with PP2 (or DMSO as a control) 1 h post-infection (hpi). At 24 or 48 hpi, cells were lysed in buffer containing 1% NP-40. Lysates were denatured and treated with endo H or PNGase F for 1 h. Samples were resolved by SDS-PAGE, and WNV E was detected by western blotting.

[7] = tested on: HIV-1 89.6; test: HIV replication assay (HIV-1 p24 antigen ELISA) in HIV-infected THP-1 and MT-2 cells; format: cell-based; details: MT-2 cells infected with HIV 89.6; continued presence of 10 μM
[8] = tested on: mitochondrial respiration in viable cells; test: XTT respiration assay to assess compound toxicity; format: cell-based; details: at the concentrations used (20/40 μM Doxepin, 50/100 μM Pyrilamine, 50/100 μM Acyclovir, 20 μM PP2, 20 μM PP3)
From the text: The agents tested are cross-referenced to the respective bar graphs as shown in insert of the right panel. […] Briefly, the XTT assay is based on the cleavage of XTT (sodium 3-[1-(phenylamino-carbonyl)-3,4-tetrazolium]-bis (4-methoxy-6-nitro) benzene sulfonic acid hydrate) to form formazan by mitochondrial respiration in viable cells (see, e.g., Marshall et al., Growth Regul. 5:69-84, 1995).

[9] = tested on: c-yes mRNA; test: Quantitative RT-PCR of c-yes mRNA in siRNA-transfected Huh7 cells; format: cell-based, human; details: 2 μl of 20 μM siRNA per 300,000 cells, harvested 24 hpi
Procedure: Huh7 cells were transfected with either of c-yes-specific siRNAs 214 or 316, or a control siRNA directed against Lamins A and C. Transfection of 300,000 cells was carried out with 2 μl of a 20 μM siRNA (Dharmacon) and 1 μl Oligofectamine (Invitrogen) according to the manufacturer's protocol. Cells were […] 24 hours post-transfection, and cells and supernatant harvested at 24 hpi. 1 μg total cellular RNA was used for quantitative RT-PCR with c-yes-specific primers.

[10] = PMO-treated HIV-infected MT-2 cells
[11] = PMO-treated HIV-infected THP-1 cells

Row | Molecule | Extent of PMO-induced Inhibition of HIV replication [2] | inhibition of HIV replication (HIV p24 gag production) [2, 10] | inhibition of HIV replication (HIV p24 gag production) [2, 11] | also measured
1 | Cc1cn([C@H]2C[C@H](N=[N+]=[N-])[C@@H](CO)O2)c(=O)[nH]c1=O [AZT] | – | – | – | HIV-induced syncytia formation [1]: substantially reduced syncytia formation
2 | CC(C)(C)n1nc(-c2ccc(Cl)cc2)c2c(N)ncnc21 [PP2, 4-Amino-5-(4-chlorophenyl)-7-(t-butyl)pyrazolo[3,4-d]pyrimidine] | – | – | – | anti-HIV activity (p24 production) ([2]; HIV-infected cells, 20 μM): substantial inhibition of HIV; HIV-induced syncytia formation [1]: substantially reduced syncytia formation; decrease of infectious WNV in the supernatant [3]: 30 fold; virus within the infected cell, lower than untreated ([4]; 24 hours post-addition of fresh PP2): approximately 500 fold; decrease of infectious virus within infected cell lysates ([4]; four hours post-addition of fresh PP2): ~10^6 fold; viral RNA within infected cells, treated vs untreated [5]: no significant difference; proportion of endo H-resistant population of WNV E protein [6]: dramatically decreased; HIV p24 production [7]: substantial decrease
3 | CN(C)CCC=C1c2ccccc2COc2ccccc21 [doxepin] | – | – | – | compound toxicity (XTT respiration assay) [8]: Except for the higher concentration of doxepin, the compounds were not toxic
4 | ARF1 (antisense ATGCTTGTGGACAGGTGGAAGGACA; all phosphorodiamidate morpholino (PMO)) | (negative) | little or no affect on HIV replication | – | –
5 | HMG20B (antisense CGCCCAGCATCTTGGTGATCTCGGG; all phosphorodiamidate morpholino (PMO)) | positive | particularly effective at reproducibly inhibiting HIV replication | particularly effective at reproducibly inhibiting HIV replication | –
6 | HRH1 (antisense GCGAAAGAGCAGCCGCCAGTTATGG; all phosphorodiamidate morpholino (PMO)) | positive | particularly effective at reproducibly inhibiting HIV replication | particularly effective at reproducibly inhibiting HIV replication | –
7 | YES (antisense TTTCTTTACTTTTAATGCAGCCCAT; all phosphorodiamidate morpholino (PMO)) | positive | particularly effective at reproducibly inhibiting HIV replication | particularly effective at reproducibly inhibiting HIV replication | –
8 | c-yes-specific siRNA 214 (guide AACGCCUUUUGGAGGUGCAUC; chemistry not given here; listed as Homo sapiens) | – | – | – | c-yes mRNA [9]: reduction of c-yes mRNA
